Test [1] deals with T1, full length human TREX1 (Homo sapiens, UniProt Q9NSU2).
T1 construct: N-terminally His-Tev tagged full length human TREX1; made in house; host or cells: E. coli
T1 sequence (Q9NSU2 1-314): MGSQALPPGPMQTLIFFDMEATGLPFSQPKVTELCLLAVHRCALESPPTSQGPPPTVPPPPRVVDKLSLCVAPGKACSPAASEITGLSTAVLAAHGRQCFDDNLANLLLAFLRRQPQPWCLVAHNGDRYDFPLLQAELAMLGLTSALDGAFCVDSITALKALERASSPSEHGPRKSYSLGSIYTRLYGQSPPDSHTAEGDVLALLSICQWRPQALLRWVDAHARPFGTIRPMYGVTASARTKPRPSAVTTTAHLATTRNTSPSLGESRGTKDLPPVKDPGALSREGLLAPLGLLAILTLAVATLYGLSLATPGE
Description: hTREX1 Biochemical Assay (fluorescence, dsDNA substrate degradation). As to conditions: biochemical, read-out: hTREX1 IC50. In a few lines:
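Fluorescence rises as enzyme degrades a quenched TEX615-labelled dsDNA substrate (60 nM) in 50 mM Tris, 150 mM NaCl, 5 mM MgCl2, pH 7.4. Full-length His-Tev-tagged human TREX1, 4 pM, sits with compound 4 hours at 25° C before substrate; reaction 18 hours, stopped with EDTA.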

Test [2] has as its target T1, full length human TREX1. Kind of test: TREX1 Kinetics Assays (TR-FRET association and dissociation, global fit with Kintek Explorer). It counts as binding. As to conditions: for Kd / residence time: hTREX1, TR-FRET kinetics; for koff / kon: hTREX1, TR-FRET, 25° C., global fit. The procedure:
Compound binding kinetics were assessed using a pair of TR-FRET assays which measure the proportion of protein bound to a biotinylated TREX1 inhibitor (“probe”).
N-terminally His-Tev tagged full length human TREX1 (expressed in E. coli and purified in house), complexed with Eu-W1024-anti-6×His (“Eu”; PerkinElmer) in reaction buffer (50 mM Tris, 150 mM NaCl, 2 mM DTT, 0.1 mg/mL BSA, 0.01% (w/v) Tween-20, 5 mM MgCl2, pH 7.4) was combined with an equal volume of test compound in reaction buffer and incubated at 25° C. Concentrations at this stage were 1 nM TREX1/Eu complex, and four concentrations of compound (diluted from 10 mM stocks in 100% DMSO). At defined time points, 18 μL of this mixture was withdrawn and combined with 2 μL probe to a final concentration of 1 μM probe. After incubating for 30 seconds, 18 μL was withdrawn and combined with 2 μL streptavidin-allophycocyanin (“SA-APC”; PerkinElmer) to a final concentration of 1.5 μM SA-APC. Fifteen μL of this mixture was then immediately transferred to a 384-well Black ProxiPlate Plus (PerkinElmer) and read in an EnVision plate reader (PerkinElmer) measuring fluorescence at 615 nm and 665 nm following excitation w/337 nm laser light. Final concentrations were 0.8 nM TREX1/Eu complex, 0.9 μM probe, and 1.5 μM SA-APC.
N-terminally His-Tev tagged full length human TREX1 (expressed in E. coli and purified in house), complexed with Eu-W1024-anti-6×His (“Eu”; PerkinElmer) in reaction buffer (50 mM Tris, 150 mM NaCl, 2 mM DTT, 0.1 mg/mL BSA, 0.01% (w/v) Tween-20, 5 mM MgCl2, pH 7.4) was combined with an equal volume of test compound in reaction buffer. Concentrations at this stage were 100 nM TREX1/Eu complex and 100 nM test compound (diluted from 10 mM stocks in 100% DMSO). Following an equilibration period of at least an hour at 25° C., this mixture was diluted 100-fold into reaction buffer containing 1 μM probe, and incubated at 25° C. At defined time points, 36 μL of the reaction mixture was withdrawn and combined with 4 μL streptavidin-allophycocyanin (“SA-APC”; PerkinElmer) to a final concentration of 1.5 μM SA-APC. Fifteen μL of this mixture was then immediately transferred to duplicate wells of a 384-well Black ProxiPlate Plus (PerkinElmer) and read in an EnVision plate reader (PerkinElmer) measuring fluorescence at 615 nm and 665 nm following excitation w/337 nm laser light.
The TR-FRET signal, a ratio of 665 nm/615 nm emitted light, was converted to fraction enzyme bound to test compound by normalizing to low signal (no enzyme or test compound) and high signal (no test compound) controls. Data from both association and dissociation experiments were fitted globally using Kintek Explorer software, which computes the rate constants directly.

What is called IC50 is the point on the concentration scale where inhibition reaches its midpoint. A word on the Kd: it is the free concentration of one partner at which half of the binding sites on the other are occupied at equilibrium, for simple one-to-one binding. Low readings indicate a tighter complex, high ones a looser complex. Broadly, the residence time is the mean lifetime of the complex, commonly the reciprocal of the off-rate. What is called koff is a measure of how fast the partners let go of each other. A word on the kon: it is the second-order rate constant of association. Low readings indicate slow association, high ones fast association.

Molecules are shown by their SMILES.

Turning to `CC(c1nc(C(=O)Nc2cnoc2)c(O)c(=O)n1C)C(c1cnn(CC2CC2)c1)c1ccccc1C#N` (single isomer, unassigned) [Example 23 D1E2], the half-inhibitory concentration (IC50) at full length human TREX1 [1] was < 1 nM. In addition, on full length human TREX1 [2], binding was put at a Kd of 0.529 nM, the residence time came to 290 min, the koff is 5.73e-05 s⁻¹ and the kon is 108000 M⁻¹ s⁻¹.

For the molecule `CC(c1nc(C(=O)Nc2cnoc2)c(O)c(=O)n1C)C(c1ccccc1C#N)c1cn(C)nc1C#N` (single isomer, unassigned) [Example 10 D1E1], the half-inhibitory concentration (IC50) on full length human TREX1 [1] was < 1 nM. Further, at full length human TREX1 [2], the Kd was determined as 0.036 nM, the residence time stood at 613 min, the koff was 2.72e-05 s⁻¹ and the on-rate (kon) is 757000 M⁻¹ s⁻¹.

Regarding `CC(c1nc(C(=O)Nc2cnoc2)c(O)c(=O)n1C)C(c1cnn(C)c1)c1cc(F)ccc1C#N` (single isomer, unassigned) [Example 14 D1E2], the IC50 at full length human TREX1 [1] is < 1 nM. Besides, on full length human TREX1 [2], the Kd was found to be 0.245 nM, the residence time turned out to be 310 min, the off-rate (koff) was 5.38e-05 s⁻¹ and the on-rate (kon) is 220000 M⁻¹ s⁻¹.

In the case of `Cc1ncc(C(c2ccccc2Cl)C(C)c2nc(C(=O)Nc3cnoc3)c(O)c(=O)n2C)nc1C` (single isomer, unassigned) [Example 125 D1E2], the IC50 on full length human TREX1 [1] is < 1 nM. Also, at full length human TREX1 [2], the residence time amounted to 543 min and the koff is 3.07e-05 s⁻¹.

In the case of `CC(c1nc(C(=O)Nc2cnoc2)c(O)c(=O)n1C)C(c1ccccc1C#N)c1cn(C)nc1F` (single isomer, unassigned) [Example 91 D1E1], the IC50 at full length human TREX1 [1] was < 1 nM. At full length human TREX1 [2], this molecule had a residence time of 1820 min and a koff of 9.17e-06 s⁻¹.

As for `Cc1nc(C)c(C(c2ccccc2C#N)C(C)c2nc(C(=O)Nc3cnoc3)c(O)c(=O)n2C)nc1C` (single isomer, unassigned) [Example 122 D1E1], the IC50 at full length human TREX1 [1] was < 1 nM. At full length human TREX1 [2], the residence time worked out at 1450 min and the off-rate constant (koff) was 1.15e-05 s⁻¹.

Take `CCn1cc(C(c2ccc(F)cc2C#N)C(C)c2nc(C(=O)Nc3cnoc3)c(O)c(=O)n2C)cn1` (single isomer, unassigned) [Example 16 D1E1]: the IC50 at full length human TREX1 [1] was < 1 nM. On full length human TREX1 [2], this molecule had a Kd of 0.245 nM, a residence time of 461 min, a koff of 3.62e-05 s⁻¹ and an on-rate constant (kon) of 147000 M⁻¹ s⁻¹.

Consider `Cc1ncc(C(c2cc(F)ccc2C#N)C(C)c2nc(C(=O)Nc3cnoc3)c(O)c(=O)n2C)nc1C` (single isomer, unassigned) [Example 124 D1E2], for which the IC50 on full length human TREX1 [1] was < 1 nM. On full length human TREX1 [2], the residence time amounted to 741 min and the off-rate constant (koff) was 2.25e-05 s⁻¹.

As for `CC(c1nc(C(=O)Nc2cnoc2)c(O)c(=O)n1C)C(c1cnn(C)c1)c1cc(Cl)ccc1C#N` (single isomer, unassigned) [Example 26 D1E2], the half-maximal inhibitory concentration (IC50) at full length human TREX1 [1] is < 1 nM. At full length human TREX1 [2], this molecule showed a Kd of 0.405 nM, a residence time of 269 min, a koff of 6.2e-05 s⁻¹ and a kon of 153000 M⁻¹ s⁻¹.

Take `CCn1cc(C(c2cc(F)ccc2C#N)C(C)c2nc(C(=O)Nc3cnoc3)c(O)c(=O)n2C)cn1` (single isomer, unassigned) [Example 17 D1E2]: the 50% inhibitory concentration (IC50) at full length human TREX1 [1] was < 1 nM. At full length human TREX1 [2], this molecule showed a Kd of 0.28 nM, a residence time of 353 min, a dissociation rate constant (koff) of 4.72e-05 s⁻¹ and a kon of 168000 M⁻¹ s⁻¹.

As to `CCn1cc(C(c2ccccc2C#N)C(C)c2nc(C(=O)Nc3cnoc3)c(O)c(=O)n2C)cn1` (single isomer, unassigned) [Example 13 D1E1], at full length human TREX1 [1], the concentration for half-maximal inhibition (IC50) is < 1 nM. At full length human TREX1 [2], this molecule had a Kd of 0.209 nM, a residence time of 370 min, an off-rate constant (koff) of 4.5e-05 s⁻¹ and a kon of 215000 M⁻¹ s⁻¹.

These data come from patent publication US20240246946A1, “MODULATORS OF TREX1” (Constellation Pharmaceuticals, Inc., priority 2021, published 2024).
